For one compound, inhibition results are on record in ChEMBL document CHEMBL4665648, “Potent and selective inhibitors of receptor-interacting protein kinase 1 that lack an aromatic back pocket group” (Bioorg Med Chem Lett, 2019).

Usually inhibition stands for the relative decrease from the control value, in per cent.

Experiment [1] addresses Serine/threonine-protein kinase BRSK1 (Homo sapiens) (UniProt Q8TDC3). Put plainly: Inhibition of recombinant human GST-tagged full length BrSK1 expressed in baculovirus expression system using Ser/Thr 21 as substrate at 10 uM incubated for 60 mins by Z'-Lyte assay relative to control.
Experiment [2] addresses Tyrosine-protein kinase receptor UFO (Homo sapiens) (UniProt P30530). The experiment is described as follows: Inhibition of recombinant human GST-tagged full length AXL expressed in insect expression system using Tyr 06 as substrate at 10 uM incubated for 60 mins by Z'-Lyte assay relative to control.
In experiment [3] the target is Vascular endothelial growth factor receptor 2 (Homo sapiens) (UniProt P35968). The experiment is described as follows: Inhibition of recombinant human His-tagged KDR (789 to 1356 residues) expressed in baculovirus expression system using Tyr 01 as substrate at 10 uM incubated for 60 mins by Z'-lyte assay relative to control.
The target in experiment [4] is Ephrin type-A receptor 7 (Homo sapiens) (UniProt Q15375). Put plainly: Inhibition of tracer 236 binding to recombinant human GST-tagged EPHA7 (579 to 998 residues) expressed in baculovirus expression system at 10 uM incubated for 60 mins by Lanthascreen assay relative to control. In general terms: Time-resolved FRET reads energy transfer from a long-lived donor to a nearby acceptor.
Chain of Ephrin type-A receptor 7 (Homo sapiens) (Q15375 whole entry, looked up, the tested form may be a part): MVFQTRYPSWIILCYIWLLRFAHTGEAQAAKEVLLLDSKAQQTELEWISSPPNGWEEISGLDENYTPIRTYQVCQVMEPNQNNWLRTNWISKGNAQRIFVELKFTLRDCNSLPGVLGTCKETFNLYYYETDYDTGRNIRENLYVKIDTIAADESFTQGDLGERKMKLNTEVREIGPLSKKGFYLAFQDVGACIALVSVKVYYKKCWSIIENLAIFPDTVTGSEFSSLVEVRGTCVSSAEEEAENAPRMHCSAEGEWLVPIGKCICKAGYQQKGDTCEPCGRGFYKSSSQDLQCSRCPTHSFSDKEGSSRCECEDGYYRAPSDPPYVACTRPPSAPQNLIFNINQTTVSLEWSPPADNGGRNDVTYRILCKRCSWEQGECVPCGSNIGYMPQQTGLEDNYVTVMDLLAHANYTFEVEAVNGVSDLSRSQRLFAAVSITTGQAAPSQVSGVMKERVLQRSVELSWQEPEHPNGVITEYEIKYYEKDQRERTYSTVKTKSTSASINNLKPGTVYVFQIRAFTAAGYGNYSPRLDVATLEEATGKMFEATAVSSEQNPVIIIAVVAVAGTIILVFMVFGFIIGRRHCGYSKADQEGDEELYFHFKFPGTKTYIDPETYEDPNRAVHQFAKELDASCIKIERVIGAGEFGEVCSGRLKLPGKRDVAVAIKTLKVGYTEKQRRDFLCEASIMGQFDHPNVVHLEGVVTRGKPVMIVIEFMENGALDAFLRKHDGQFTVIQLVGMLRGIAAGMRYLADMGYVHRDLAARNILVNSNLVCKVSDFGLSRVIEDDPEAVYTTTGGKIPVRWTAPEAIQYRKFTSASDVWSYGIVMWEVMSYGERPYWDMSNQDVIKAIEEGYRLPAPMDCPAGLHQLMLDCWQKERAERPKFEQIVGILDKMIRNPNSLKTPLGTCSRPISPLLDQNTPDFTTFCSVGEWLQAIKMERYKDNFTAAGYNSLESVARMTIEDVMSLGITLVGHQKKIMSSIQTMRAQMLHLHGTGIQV

The target of experiment [5] is Cyclin-dependent kinase 1/cyclin B1 (Homo sapiens) (UniProt P06493+P14635). Put plainly: Inhibition of recombinant human His-tagged full length CDK1/Cyclin B expressed in baculovirus expression system using Ser/Thr 18 as substrate at 10 uM incubated for 60 mins by Z'-Lyte assay relative to control.
Chain of Cyclin-dependent kinase 1/cyclin B1 (Homo sapiens) (P06493 whole entry, looked up): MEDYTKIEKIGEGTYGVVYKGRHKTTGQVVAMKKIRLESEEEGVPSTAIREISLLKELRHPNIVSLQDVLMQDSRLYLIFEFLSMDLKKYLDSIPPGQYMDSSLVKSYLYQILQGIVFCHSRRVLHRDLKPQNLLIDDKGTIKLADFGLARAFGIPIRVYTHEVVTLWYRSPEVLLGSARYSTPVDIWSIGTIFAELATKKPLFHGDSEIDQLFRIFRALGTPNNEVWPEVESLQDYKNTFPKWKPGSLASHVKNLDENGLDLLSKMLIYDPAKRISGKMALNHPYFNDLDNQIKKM
Chain of Cyclin-dependent kinase 1/cyclin B1 (Homo sapiens) (P14635 whole entry, looked up): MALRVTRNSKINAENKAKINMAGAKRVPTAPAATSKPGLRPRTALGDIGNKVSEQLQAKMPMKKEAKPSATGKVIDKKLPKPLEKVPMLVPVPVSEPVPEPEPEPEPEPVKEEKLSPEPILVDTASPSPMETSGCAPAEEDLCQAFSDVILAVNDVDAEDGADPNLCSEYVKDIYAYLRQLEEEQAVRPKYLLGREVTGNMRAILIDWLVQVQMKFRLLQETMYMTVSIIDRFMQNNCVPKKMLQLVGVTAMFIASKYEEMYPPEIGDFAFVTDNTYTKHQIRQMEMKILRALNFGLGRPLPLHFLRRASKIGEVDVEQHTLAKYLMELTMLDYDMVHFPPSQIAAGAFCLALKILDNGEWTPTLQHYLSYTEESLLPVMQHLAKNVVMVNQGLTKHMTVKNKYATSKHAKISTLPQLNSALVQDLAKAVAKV
The target of experiment [6] is CDK9/cyclin T1 (Homo sapiens) (UniProt O60563+P50750). Put plainly: Inhibition of recombinant human His-tagged full length CDK9/Cyclin T1 expressed in baculovirus expression system using CDK7/9tide as substrate at 10 uM incubated for 60 mins by Adapta assay relative to control.
The target in experiment [7] is Casein kinase I isoform delta (Homo sapiens) (UniProt P48730). The experiment is described as follows: Inhibition of recombinant human GST-tagged full length CK1delta expressed in baculovirus expression system using Ser/Thr 11 as substrate at 10 uM incubated for 60 mins by Z'-Lyte assay relative to control.
Chain of Casein kinase I isoform delta (Homo sapiens) (P48730 whole entry, looked up, the tested form may be a part, canonical isoform): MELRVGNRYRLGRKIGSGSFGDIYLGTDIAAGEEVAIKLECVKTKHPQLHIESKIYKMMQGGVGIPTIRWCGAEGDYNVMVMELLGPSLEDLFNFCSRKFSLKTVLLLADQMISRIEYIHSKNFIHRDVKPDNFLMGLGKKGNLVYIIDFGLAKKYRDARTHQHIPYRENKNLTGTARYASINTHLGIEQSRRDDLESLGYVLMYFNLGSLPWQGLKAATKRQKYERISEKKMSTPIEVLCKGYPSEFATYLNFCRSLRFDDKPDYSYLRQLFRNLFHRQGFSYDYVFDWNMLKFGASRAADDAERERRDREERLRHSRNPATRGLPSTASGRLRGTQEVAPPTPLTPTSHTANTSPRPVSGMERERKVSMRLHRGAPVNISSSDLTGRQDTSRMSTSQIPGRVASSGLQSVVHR
Experiment [8] concerns Epidermal growth factor receptor (Homo sapiens), P00533 [L858R,T790M]. Put plainly: Inhibition of recombinant human GST-tagged EGFR T790M/L858R double mutant (668 to 1210 residues) expressed in baculovirus expression system using Tyr 4 as substrate at 10 uM incubated for 60 mins by Z'-Lyte assay relative to control.
For experiment [9], the target named is Vascular endothelial growth factor receptor 3 (Homo sapiens) (UniProt P35916). The experiment is described as follows: Inhibition of recombinant human GST-tagged FLT4 (800 to 1297 residues) expressed in baculovirus expression system using Tyr 04 as substrate at 10 uM incubated for 60 mins by Z'-Lyte assay relative to control.
The target in experiment [10] is Tyrosine-protein kinase JAK2 (Homo sapiens) (UniProt O60674). Put plainly: Inhibition of recombinant human GST-tagged JAK2 (809 to 1153 residues) expressed in baculovirus expression system using Tyr 06 as substrate at 10 uM incubated for 60 mins by Z'-lyte assay relative to control.
The target of experiment [11] is Mitogen-activated protein kinase kinase kinase kinase 4 (Homo sapiens) (UniProt O95819). The experiment is described as follows: Inhibition of recombinant human GST-tagged full length MAP4K4 expressed in baculovirus expression system using Ser/Thr 07 as substrate at 10 uM incubated for 60 mins by Z'-lyte assay relative to control.
For experiment [12], the target named is MAP/microtubule affinity-regulating kinase 3 (Homo sapiens) (UniProt P27448). The experiment is described as follows: Inhibition of recombinant human GST-tagged full length MARK3 expressed in baculovirus expression system using Ser/Thr 25 as substrate at 10 uM incubated for 60 mins by Z'-lyte assay relative to control.
Chain of MAP/microtubule affinity-regulating kinase 3 (Homo sapiens) (P27448 whole entry, looked up): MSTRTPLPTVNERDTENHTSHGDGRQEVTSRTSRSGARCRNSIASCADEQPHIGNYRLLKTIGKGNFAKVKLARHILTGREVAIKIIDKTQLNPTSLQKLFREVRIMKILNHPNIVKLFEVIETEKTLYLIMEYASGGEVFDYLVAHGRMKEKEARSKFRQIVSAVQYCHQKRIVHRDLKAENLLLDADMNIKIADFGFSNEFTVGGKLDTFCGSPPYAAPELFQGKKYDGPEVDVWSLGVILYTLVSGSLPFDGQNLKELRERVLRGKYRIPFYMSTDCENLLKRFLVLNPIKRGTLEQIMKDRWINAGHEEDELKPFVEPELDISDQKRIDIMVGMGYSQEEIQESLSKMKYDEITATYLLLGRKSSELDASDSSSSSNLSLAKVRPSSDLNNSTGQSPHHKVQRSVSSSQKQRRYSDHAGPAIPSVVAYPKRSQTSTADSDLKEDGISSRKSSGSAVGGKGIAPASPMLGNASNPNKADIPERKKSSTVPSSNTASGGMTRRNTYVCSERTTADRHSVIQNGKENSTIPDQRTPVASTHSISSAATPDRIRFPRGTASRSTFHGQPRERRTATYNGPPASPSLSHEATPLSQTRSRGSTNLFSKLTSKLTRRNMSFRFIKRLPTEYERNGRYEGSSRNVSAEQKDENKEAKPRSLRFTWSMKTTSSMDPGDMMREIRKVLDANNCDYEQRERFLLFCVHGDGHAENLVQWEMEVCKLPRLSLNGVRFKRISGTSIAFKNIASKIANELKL
In experiment [13] the target is MAP kinase-interacting serine/threonine-protein kinase 2 (Homo sapiens) (UniProt Q9HBH9). The experiment is described as follows: Inhibition of tracer 236 binding to recombinant human N-terminal GST-tagged full length MKNK2 expressed in baculovirus expression system at 10 uM incubated for 60 mins by Lanthascreen assay relative to control.
The target in experiment [14] is Myosin light chain kinase, smooth muscle (Homo sapiens) (UniProt Q15746). Put plainly: Inhibition of tracer 236 binding to recombinant human GST-tagged MYLK (1428 to 1771 residues) expressed in baculovirus expression system at 10 uM incubated for 60 mins by Lanthascreen assay relative to control.
In experiment [15] the target is Misshapen-like kinase 1 (Homo sapiens) (UniProt Q8N4C8). The experiment is described as follows: Inhibition of recombinant human GST-tagged MINK1 (1 to 320 residues) expressed in baculovirus expression system using Ser/Thr 07 as substrate at 10 uM incubated for 60 mins by Z'-lyte assay relative to control.
Experiment [16] deals with Serine/threonine-protein kinase Nek9 (Homo sapiens) (UniProt Q8TD19). Put plainly: Inhibition of recombinant human GST-tagged NEK9 (347 to 732 residues) expressed in baculovirus expression system using Ser/Thr 07 as substrate at 10 uM incubated for 60 mins by Z'-lyte assay relative to control.
Experiment [17] concerns the target Protein kinase C epsilon type (Homo sapiens) (UniProt Q02156). The experiment is described as follows: Inhibition of recombinant human GST-tagged full length PKCepsilon expressed in insect expression system using Ser/Thr 07 as substrate at 10 uM incubated for 60 mins by Z'-lyte assay relative to control.
Experiment [18] deals with Proto-oncogene tyrosine-protein kinase ROS (Homo sapiens) (UniProt P08922). The experiment is described as follows: Inhibition of recombinant human GST-tagged full length ROS1 (1883 to 2347 residues) expressed in baculovirus expression system using Tyr 01 as substrate at 10 uM incubated for 60 mins by Z'-Lyte assay relative to control.
Experiment [19] addresses Serine/threonine-protein kinase Sgk2 (Homo sapiens) (UniProt Q9HBY8). The experiment is described as follows: Inhibition of recombinant human GST-tagged full length SGK2 (54 to 427 residues) expressed in baculovirus expression system using Ser/Thr 06 as substrate at 10 uM incubated for 60 mins by Z'-Lyte assay relative to control.
Experiment [20] concerns the target Activated CDC42 kinase 1 (Homo sapiens) (UniProt Q07912). Put plainly: Inhibition of tracer 236 binding to recombinant human GST-tagged TNK2 (110 to 476 residues) expressed in baculovirus expression system at 10 uM incubated for 60 mins by Lanthascreen assay relative to control.
Experiment [21] has as its target Mitogen-activated protein kinase kinase kinase 8 (Homo sapiens) (UniProt P41279). The experiment is described as follows: Inhibition of recombinant human GST-tagged TPL2 (30 to 397 residues) expressed in baculovirus expression system using Ser/Thr 03 as substrate at 10 uM incubated for 60 mins by Z'-Lyte assay relative to control.
The target of experiment [22] is Serine/threonine-protein kinase 25 (Homo sapiens) (UniProt O00506). Put plainly: Inhibition of recombinant human GST-tagged full length YSK1 expressed in baculovirus expression system using Ser/Thr 07 as substrate at 10 uM incubated for 60 mins by Z'-Lyte assay relative to control.
Experiment [23] has as its target Mitogen-activated protein kinase kinase kinase 20 (Homo sapiens) (UniProt Q9NYL2). Put plainly: Inhibition of tracer 178 binding to recombinant human N-terminal GST-tagged full length ZAK expressed in baculovirus expression system at 10 uM incubated for 60 mins by Lanthascreen assay relative to control.

Chain of Mitogen-activated protein kinase kinase kinase 20 (Homo sapiens) (Q9NYL2 2-800 limits assumed): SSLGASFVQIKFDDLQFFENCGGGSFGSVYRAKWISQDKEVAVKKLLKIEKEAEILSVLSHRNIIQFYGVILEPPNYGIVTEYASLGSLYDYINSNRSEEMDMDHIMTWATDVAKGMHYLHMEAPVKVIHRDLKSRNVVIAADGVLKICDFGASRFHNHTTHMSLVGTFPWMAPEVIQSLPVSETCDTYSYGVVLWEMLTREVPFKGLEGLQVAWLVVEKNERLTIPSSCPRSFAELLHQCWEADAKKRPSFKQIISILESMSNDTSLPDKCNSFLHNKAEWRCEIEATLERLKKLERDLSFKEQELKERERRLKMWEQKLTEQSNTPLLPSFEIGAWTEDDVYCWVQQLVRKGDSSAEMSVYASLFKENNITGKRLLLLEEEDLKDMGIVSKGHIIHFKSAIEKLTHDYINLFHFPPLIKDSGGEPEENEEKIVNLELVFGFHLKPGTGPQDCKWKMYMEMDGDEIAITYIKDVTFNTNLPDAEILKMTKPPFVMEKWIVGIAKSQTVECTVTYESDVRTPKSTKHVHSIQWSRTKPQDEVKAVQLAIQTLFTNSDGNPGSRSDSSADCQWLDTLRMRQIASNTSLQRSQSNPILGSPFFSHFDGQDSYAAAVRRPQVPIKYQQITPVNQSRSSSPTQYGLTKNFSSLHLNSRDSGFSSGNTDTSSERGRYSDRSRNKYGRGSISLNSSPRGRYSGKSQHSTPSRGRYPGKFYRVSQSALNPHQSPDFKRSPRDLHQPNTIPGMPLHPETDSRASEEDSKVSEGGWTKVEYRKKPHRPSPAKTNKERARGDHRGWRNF
Chain of Serine/threonine-protein kinase Sgk2 (Homo sapiens) (Q9HBY8 whole entry, the tested form may be a part): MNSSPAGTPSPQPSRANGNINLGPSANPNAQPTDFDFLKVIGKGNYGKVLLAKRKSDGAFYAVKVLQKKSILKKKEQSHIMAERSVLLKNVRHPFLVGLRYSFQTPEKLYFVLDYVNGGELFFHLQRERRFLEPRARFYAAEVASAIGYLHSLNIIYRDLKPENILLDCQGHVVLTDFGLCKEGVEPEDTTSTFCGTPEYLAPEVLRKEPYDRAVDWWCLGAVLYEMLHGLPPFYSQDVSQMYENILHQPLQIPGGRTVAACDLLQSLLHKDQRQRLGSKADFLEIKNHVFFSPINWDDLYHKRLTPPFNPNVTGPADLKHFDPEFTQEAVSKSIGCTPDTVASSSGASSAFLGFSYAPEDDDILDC
Chain of Tyrosine-protein kinase receptor UFO (Homo sapiens) (P30530 whole entry, the tested form may be a part): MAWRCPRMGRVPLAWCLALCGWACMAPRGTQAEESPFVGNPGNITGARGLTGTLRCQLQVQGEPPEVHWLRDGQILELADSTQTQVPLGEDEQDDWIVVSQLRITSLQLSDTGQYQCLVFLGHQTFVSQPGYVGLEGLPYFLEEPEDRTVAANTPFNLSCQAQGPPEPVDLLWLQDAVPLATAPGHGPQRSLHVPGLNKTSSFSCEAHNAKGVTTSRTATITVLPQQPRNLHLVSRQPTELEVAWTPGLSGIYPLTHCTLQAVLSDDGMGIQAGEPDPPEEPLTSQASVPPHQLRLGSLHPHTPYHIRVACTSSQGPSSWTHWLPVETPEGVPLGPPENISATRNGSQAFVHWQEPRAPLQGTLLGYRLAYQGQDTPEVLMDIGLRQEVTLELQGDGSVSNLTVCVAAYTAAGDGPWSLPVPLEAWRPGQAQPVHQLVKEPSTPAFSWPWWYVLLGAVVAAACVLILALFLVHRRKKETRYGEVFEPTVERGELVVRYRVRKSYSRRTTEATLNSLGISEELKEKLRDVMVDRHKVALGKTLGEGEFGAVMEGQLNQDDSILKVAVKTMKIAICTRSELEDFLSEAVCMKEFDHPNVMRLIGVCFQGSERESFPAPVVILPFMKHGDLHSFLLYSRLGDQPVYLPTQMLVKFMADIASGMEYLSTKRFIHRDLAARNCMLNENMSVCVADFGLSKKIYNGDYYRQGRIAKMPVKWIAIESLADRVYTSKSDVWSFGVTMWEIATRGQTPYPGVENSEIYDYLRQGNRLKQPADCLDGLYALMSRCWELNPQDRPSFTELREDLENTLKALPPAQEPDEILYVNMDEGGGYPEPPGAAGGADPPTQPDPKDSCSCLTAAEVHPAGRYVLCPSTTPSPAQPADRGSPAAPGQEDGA

Take `CN1C(=O)[C@@H](NC(=O)c2n[nH]c3ncc(C(F)(F)C(F)(F)F)cc23)COc2ccccc21`: the inhibition is 6% in [1]; 6.5% in experiment [2]; 8% in [3]; 4.5% in experiment [4]; 3% in [5]; 6% in experiment [6]. Also, the inhibition in experiment [7] is 1%; in experiment [8], 7%; in [9], -3.5%; in experiment [10] it was 0%; in [11], 15.5%; in [12], -3.5%. The inhibition was 1% in experiment [13]; 7.5% in experiment [14]; 12.5% in experiment [15]; 3% in experiment [16]; -6% in experiment [17]; -4% in [18]. Also, the inhibition turned out to be 4% in [19]; 1.5% in experiment [20]; 6.5% in experiment [21]; 7% in [22]; 6.5% in [23].
